The values below come from patent US6479293B1, “Temperature indicating material and temperature monitoring member” (Toshiba Tec Kabushiki Kaisha, priority 1999, dated 2002).

The procedure of this data set: The solubility of propyl gallate (PG) in molten cyclododecanol (CD) was studied. […] Here, temperature indicating members were prepared by adding cylododecanol (CD) in an amount permitting dissolution of 8 times the amount (Example 3), 4 times the amount (Example 4), twice the amount (Example 5), 1.2 times the amount (Example 6) and 0.8 time the amount (Example 7) of 1 part by weight of propyl gallate (PG), respectively. […] As comparative examples, a temperature indicating material free of cyclododecanol (CD) and that containing 5 parts by weight of 1-docosanol, which is a linear saturated alcohol, instead of cyclododecanol (CD) were prepared in Comparative Example 4 and Comparative Example 5, respectively.

The molecule `CCCCCCCCCCCCOC(=O)c1cc(O)c(O)c(O)c1` [LG, lauryl gallate] had a Solubility of 10.

For `CCCOC(=O)c1cc(O)c(O)c(O)c1` [PG, propyl gallate], the Solubility is listed as 8 and the “Solubility of propyl gallate (PG) in molten cyclododecanol (CD)” value was “at least 0.8 g”.

Molecule `O=C(c1ccc(O)cc1)c1ccc(O)c(O)c1O` [Example 2344, 2,3,4,4′-tetrahydroxybenzophenone] returned a Solubility of 2.

`CC(C)(c1ccc(O)cc1)c1ccc(O)cc1` [HBA, bisphenol A] gave a Solubility of 3.
